Columns and labels:
[1] = system: K. pneumoniae, E. coli, Salmonella, P. aeruginosa, and A. baumannii; test: Checkerboard assay, panel of tested strains (summary statements); assay type: cell-based
Experimental: (§1) The FICI of β,β-Dim–colistin combination was determined by a checkerboard assay. Briefly, two-fold serial dilutions of β,β-Dim and colistin were prepared in a 96-well plate. After incubation at 37 °C for 18 h with bacterial suspension (10^6 CFU/mL), OD600 values were measured. FICI = (MICβ,β-Dim in combination/MICβ,β-Dim) + (MICcolistin in combination/MICcolistin). The synergistic effect of β,β-Dim with other antibiotics was measured in the same way. Synergy was considered to be an FICI ≤ 0.5.

[2] = system: K. pneumoniae 667; test: Bacterial growth curves; assay type: cell-based; details: β,β-Dim 4 µg/mL, colistin 0.5 µg/mL, alone or combined; 24 h
Experimental: Overnight cultures of K. pneumoniae 667 and E. coli 13f4 were diluted to 10^6 CFU/mL; then, β,β-Dim (4 μg/mL), colistin (0.5 or 2 μg/mL), and their combination were co-incubated with bacterial suspensions in a 96-well plate. OD600 values were monitored hourly over a 24 h period.

[3] = acute oral, mice; cited from earlier work
[4] = system: K. pneumoniae 667(phoP、pmrA、blaKPC); test: Checkerboard assay (MIC, FICI); assay type: cell-based
Experimental: as §1

[5] = system: E. coli BW25113-184-mcr-1; test: Checkerboard assay (MIC, FICI); assay type: cell-based
Experimental: as §1

[6] = system: K. pneumoniae ATCC 13883; test: Checkerboard assay (MIC, FICI); assay type: cell-based
Experimental: as §1

[7] = system: K. pneumoniae 29(mcr-8、pmrB、blaNDM); test: Checkerboard assay (MIC, FICI); assay type: cell-based
Experimental: as §1

[8] = system: K. pneumoniae 20(mcr-1); test: Checkerboard assay (MIC, FICI); assay type: cell-based
Experimental: as §1

[9] = system: E. coli ATCC 25922; test: Checkerboard assay (MIC, FICI); assay type: cell-based
Experimental: as §1

[10] = system: S. Typhimurium 9891(mcr-1); test: Checkerboard assay (MIC, FICI); assay type: cell-based
Experimental: as §1

[11] = system: E. coli BW25113-184; test: Checkerboard assay (MIC, FICI); assay type: cell-based
Experimental: as §1

[12] = system: S. Typhimurium ATCC 14028; test: Checkerboard assay (MIC, FICI); assay type: cell-based
Experimental: as §1

[13] = system: K. pneumoniae 650(mgrB、phoP、pmrA、blaKPC); test: Checkerboard assay (MIC, FICI); assay type: cell-based
Experimental: as §1

[14] = system: K. pneumoniae 197(mcr-1、blaNDM); test: Checkerboard assay (MIC, FICI); assay type: cell-based
Experimental: as §1

[15] = system: K. pneumoniae 492(mcr-1、blaNDM); test: Checkerboard assay (MIC, FICI); assay type: cell-based
Experimental: as §1

[16] = system: E. coli BW25113-pmrBR93P(pmrB); test: Checkerboard assay (MIC, FICI); assay type: cell-based
Experimental: as §1

[17] = system: K. pneumoniae 251(mgrB、phoP、pmrA、blaKPC); test: Checkerboard assay (MIC, FICI); assay type: cell-based
Experimental: as §1

[18] = system: P. aeruginosa PAO1; test: Checkerboard assay (MIC, FICI); assay type: cell-based
Experimental: as §1

[19] = system: P. aeruginosa 9(mcr-1); test: Checkerboard assay (MIC, FICI); assay type: cell-based
Experimental: as §1

[20] = system: E. coli 13f4(mcr-1); test: Checkerboard assay (MIC, FICI); assay type: cell-based
Experimental: as §1

[21] = system: K. pneumoniae 126(mcr-8); test: Checkerboard assay (MIC, FICI); assay type: cell-based
Experimental: as §1

[22] = system: K. pneumoniae 57(mcr-9、blaNDM); test: Checkerboard assay (MIC, FICI); assay type: cell-based
Experimental: as §1

[23] = system: A. baumannii ATCC 19606; test: Checkerboard assay (MIC, FICI); assay type: cell-based
Experimental: as §1

[24] = system: K. pneumoniae 109(mcr-8); test: Checkerboard assay (MIC, FICI); assay type: cell-based
Experimental: as §1

[25] = system: E. coli ZJ71(mcr-1); test: Checkerboard assay (MIC, FICI); assay type: cell-based
Experimental: as §1

[26] = system: E. coli BW25113-pmrAD82N(pmrA); test: Checkerboard assay (MIC, FICI); assay type: cell-based
Experimental: as §1

[27] = system: E. coli pHSG299-mcr-3; test: Checkerboard assay (MIC, FICI); assay type: cell-based
Experimental: as §1

[28] = Klebsiella pneumoniae, read-out: MIC of β,β-Dim
[29] = Escherichia coli, BW25113, read-out: MIC of β,β-Dim
[30] = Escherichia coli, read-out: MIC of β,β-Dim

## CC(C)=CC[C@H](OC(=O)C=C(C)C)C1=CC(=O)c2c(O)ccc(O)c2C1=O [β,β-Dim, β,β-dimethylacrylalkannin]
[1]; β,β-Dim alone
  antibacterial activity against Gram-negative bacteria: did not exhibit antibacterial activity
[1]; β,β-Dim with colistin, summary over tested strains
  FICI: < 0.5
[2]
  bacterial growth (growth curves): neither β,β-Dim (4 µg/mL) nor colistin (0.5 µg/mL) alone inhibited the growth
[3]
  median lethal dose (LD50): exceeds 10 g/kg
[4]; 667, with colistin
  MIC of β,β-Dim [Combination]: 2 µg/mL
[4]; [28]
  MIC: > 128 µg/mL
[5]; BW25113-184-mcr-1, with colistin
  MIC of β,β-Dim [Combination]: 4 µg/mL
[5]; [29]
  MIC: > 128 µg/mL
[6]; 13883, with colistin
  MIC of β,β-Dim [Combination]: 2 µg/mL
[6]; Klebsiella pneumoniae, ATCC13883, read-out: MIC of β,β-Dim
  MIC: > 128 µg/mL
[7]; 29, with colistin
  MIC of β,β-Dim [Combination]: 4 µg/mL
[7]; [28]
  MIC: > 128 µg/mL
[8]; 20(mcr-1), with colistin
  MIC of β,β-Dim [Combination]: 4 µg/mL
[8]; [28]
  MIC: > 128 µg/mL
[9]; 25922, with colistin
  MIC of β,β-Dim [Combination]: 2 µg/mL
[9]; Escherichia coli, ATCC25922, read-out: MIC of β,β-Dim
  MIC: > 128 µg/mL
[10]; 9891, with colistin
  MIC of β,β-Dim [Combination]: 8 µg/mL
[10]; Salmonella enterica, TYPHIMURIUM, read-out: MIC of β,β-Dim
  MIC: > 128 µg/mL
[11]; BW25113-184, with colistin
  MIC of β,β-Dim [Combination]: 2 µg/mL
[11]; [29]
  MIC: > 128 µg/mL
[12]; 14028, with colistin
  MIC of β,β-Dim [Combination]: 0.5 µg/mL
[12]; Salmonella enterica, read-out: MIC of β,β-Dim
  MIC: > 128 µg/mL
[13]; 650, with colistin
  MIC of β,β-Dim [Combination]: 8 µg/mL
[13]; [28]
  MIC: > 128 µg/mL
[14]; 197, with colistin
  MIC of β,β-Dim [Combination]: 8 µg/mL
[14]; [28]
  MIC: > 128 µg/mL
[15]; 492, with colistin
  MIC of β,β-Dim [Combination]: 2 µg/mL
[15]; [28]
  MIC: > 128 µg/mL
[16]; BW25113-pmrBR93P, with colistin
  MIC of β,β-Dim [Combination]: 8 µg/mL
[16]; [29]
  MIC: > 128 µg/mL
[17]; 251, with colistin
  MIC of β,β-Dim [Combination]: 4 µg/mL
[17]; [28]
  MIC: > 128 µg/mL
[18]; PAO1, with colistin
  MIC of β,β-Dim [Combination]: 2 µg/mL
[18]; Pseudomonas aeruginosa, PAO1, read-out: MIC of β,β-Dim
  MIC: > 128 µg/mL
[19]; P. aeruginosa 9, with colistin
  MIC of β,β-Dim [Combination]: 16 µg/mL
[19]; Pseudomonas aeruginosa, read-out: MIC of β,β-Dim
  MIC: > 128 µg/mL
[20]; 13f4, with colistin
  MIC of β,β-Dim [Combination]: 4 µg/mL
[20]; [30]
  MIC: > 128 µg/mL
[21]; 126, with colistin
  MIC of β,β-Dim [Combination]: 8 µg/mL
[21]; [28]
  MIC: > 128 µg/mL
[22]; 57, with colistin
  MIC of β,β-Dim [Combination]: 8 µg/mL
[22]; [28]
  MIC: > 128 µg/mL
[23]; 19606, with colistin
  MIC of β,β-Dim [Combination]: 4 µg/mL
[23]; Acinetobacter baumannii, ATCC19606, read-out: MIC of β,β-Dim
  MIC: > 128 µg/mL
[24]; 109, with colistin
  MIC of β,β-Dim [Combination]: 4 µg/mL
[24]; [28]
  MIC: > 128 µg/mL
[25]; [30]
  MIC: > 128 µg/mL
[25]; ZJ71, with colistin
  MIC of β,β-Dim [Combination]: 4 µg/mL
[26]; BW25113-pmrAD82N, with colistin
  MIC of β,β-Dim [Combination]: 8 µg/mL
[26]; [29]
  MIC: > 128 µg/mL
[27]; Escherichia coli, PHSG299MCR3, read-out: MIC of β,β-Dim
  MIC: > 128 µg/mL
[27]; pHSG299-mcr-3, with colistin
  MIC of β,β-Dim [Combination]: 8 µg/mL

— PMC12837263, “β,β-Dimethylacrylalkannin Restores Colistin Efficacy Against mcr- and TCS-Mediated Resistant Gram-Negative Bacteria via Membrane Disturbance” (Antibiotics, 2025)
